According to patent publication US6800618B2, “Chemosensitizing agents against chloroquine resistant plasmodium falciparum and methods of making and using thereof” (The United States of America as represented by the …, priority 2001, dated 2004):

Assays:
TM91C235 cells = assay: In vitro reversal activity (cell growth suppression, 3H-hypoxanthine incorporation) in TM91C235 cells; format: cell-based, Plasmodium falciparum; details: for Control % sup: test compounds only
Description: For quantitative in vitro drug susceptibility testing, two well characterized P. falciparum clones, W2 and D6, were used. See Oduola et al. (1988) Exp Parasitol 66:86-95, which is herein incorporated by reference. W2 is a clone of the Indochina I isolate and is resistant to chloroquine and pyrimethamine, but susceptible to mefloquine. D6 is a clone from the Sierra I/UNC isolate and is susceptible to chloroquine and pyrimethamine, but has reduced susceptibilities to mefloquine and halofantrine. TM91C235 was isolates from Thailand and is highly resistant to mefloquine, chloroquine, and quinine.
The in vitro antimalarial drug susceptibility assay used is a modification of the procedures first published by Desjardins, et al. with modifications developed by Milhous, et al. See Desjardins, R. E., et al. (1979) Antimicrobial Agents Chemother 16:710-718; and Milhous, et al. (1985) Antimicrobial Agents Chemother 27:525-530, which are herein incorporated by reference. In brief, the assay is based on the incorporation of radiolabeled hypoxanthine by the parasites and inhibition of isotope incorporation is attributed to activity of known or candidate antimalarial drugs. For each assay, proven antimalarials, such as chloroquine, mefloquine, quinine, artemisinin, pyrimethamine and sulfadoxine, were used as controls. The incubation period was 66 hours and the starting parasitemia was 0.2% with a 1% hematocrit. The media used was RPMI-1640 culture media with no folate or p-aminobenzoic acid (PABA). Albumax may be used instead of 10% normal heat inactivated human plasma.
If a candidate compound was tested without any prior knowledge of its activity or solubility, the compound was dissolved directly in dimethylsulfoxide (DMSO) and diluted 400 fold with complete culture media. These unknown compounds were normally started at a highest concentration of about 50,000 ng/ml. The compounds were then diluted 2-fold, 11 times, to give a concentration range of about 1,048-fold. These dilutions were performed automatically by a Biomek 1000 or 2000 Liquid Handling System into 96-well microtiter plates.
(§1) 25 μl of each diluted candidate compound was then transferred to test plates, 200 μl of parasitized erythrocytes (0.2% parasitemia and 1% hematocrit) were added, and incubated at 37° C. in a controlled environment of 5% CO2, 5% O2 and 90% N2. After 42 hours, 25 μl of ^3H-hypoxanthine was added and the plates were incubated for an additional 24 hours. At the end of the 66 hour incubation period, the plates were frozen at −70° C. to lyse the red cells and later thawed and harvested onto glass fiber filter mats by using a 96-well cell harvester. The filter mats were then counted in a scintillation counter and the data was analyzed.
Each of these test compounds were tested under three different concentrations, 5000, 500, and 50 ng/ml, in the presence of 10 ng/ml of chloroquine and 5 ng/ml of mefloquine. […] Thus, the compounds of the present invention may be used to treat, prevent or inhibit drug resistant malaria.

[1] = test system: Plasmodium falciparum W2 clone; assay: FIC index with chloroquine (isobologram analysis) in W2 clone; format: cell-based; parameters: key: 1.0 = additive; <1.0 = synergy; >1.0 = antagonism; details: 1:1 combination of drug and chloroquine; chloroquine-resistant W2 clone
Protocol: In brief, the assay is based on the incorporation of radiolabeled hypoxanthine by the parasites and inhibition of isotope incorporation is attributed to activity of known or candidate antimalarial drugs. For each assay, proven antimalarials, such as chloroquine, mefloquine, quinine, artemisinin, pyrimethamine and sulfadoxine, were used as controls. The incubation period was 66 hours and the starting parasitemia was 0.2% with a 1% hematocrit. […] Albumax may be used instead of 10% normal heat inactivated human plasma.
as §1
(§2) The FIC is the actual IC50 of one compound in the presence of a second compound but is expressed as a fraction of its IC50 when used alone. This index is a mathematical representation of the isobologram such that an FIC index of 1.0 represents the line of additive on the isobologram. An FIC index of less than 1.0 represents synergy or potentiation and an FIC index of greater than 1.0 represents antagonism.
In the isobologram graphs as shown in FIGS. 1-3, the x-axis is fractional inhibitory concentration (FIC) of chloroquine and the y-axis is FIC of chemosensitizing agent. The FIC is the actual IC50 of one drug in the presence of the second drug but is expressed as a fraction of its IC50 when used alone. If the isobologram graph is a straight line, it represents an additive effect of the two drugs. If the graph forms a concave curve below the line, it indicates synergy or potentiation of the combination. Below the line means synergy or potentiation and above the line means antagonism.

TM91C235 = assay: FIC index in TM91C235 isolate; format: cell-based, Plasmodium falciparum; parameters: key: 1.0 = additive; <1.0 = synergy; >1.0 = antagonism; details: isolate from Southeast Asia (Thailand); same method as for W-2
Protocol: as §2, with “Fifty percent inhibitory concentrations (IC50s) were determined for each candidate compound alone and for candidate compounds in fixed combinations of their respective IC50s (1:1, 1:3, 3:1). […] The” for “The”
The same assay method described above for W-2 was used except that the strains used were isolated from Thailand, Brazil, and Peru, respectively.

RCS = assay: FIC index in RCS isolate; format: cell-based, Plasmodium falciparum; parameters: key: 1.0 = additive; <1.0 synergy; >1.0 antagonism; details: isolate from Brazil; same method as for W-2
Protocol: (§3) Fifty percent inhibitory concentrations (IC50s) were determined for each candidate compound alone and for candidate compounds in fixed combinations of their respective IC50s (1:1, 1:3, 3:1). […] See Elion, G. V., et al. (1954) J Biol Chem 208:477-488, which is herein incorporated by reference. The FIC is the actual IC50 of one compound in the presence of a second compound but is expressed as a fraction of its IC50 when used alone. This index is a mathematical representation of the isobologram such that an FIC index of 1.0 represents the line of additive on the isobologram. An FIC index of less than 1.0 represents synergy or potentiation and an FIC index of greater than 1.0 represents antagonism.
(§4) Parasites from different regions responded differently to the compounds of the present invention. The same assay method described above for W-2 was used except that the strains used were isolated from Thailand, Brazil, and Peru, respectively.

Peruvian PC49 = assay: FIC index in Peruvian PC49 isolate; format: cell-based, Plasmodium falciparum; parameters: key: 1.0 = additive; <1.0 synergy; >1.0 antagonism; details: isolate from South America (Peru); same method as for W-2
Protocol: as §3, §4

[2] = test compound 50 ng/ml combined with 5 ng/ml mefloquine
[3] = test compound 500 ng/ml combined with 5 ng/ml mefloquine
[4] = test compound 500 ng/ml combined with 10 ng/ml chloroquine
[5] = test compound 5000 ng/ml combined with 5 ng/ml mefloquine
[6] = test compound 5000 ng/ml combined with 10 ng/ml chloroquine

| SMILES | Mefloquine % SUP (TM91C235 cells; [2]) [%] | Mefloquine % SUP (TM91C235 cells; [3]) [%] | Chloroquine % sup (TM91C235 cells; [4]) [%] | Mefloquine % SUP (TM91C235 cells; [5]) [%] | Chloroquine % sup (TM91C235 cells; [6]) [%] | Control % sup (TM91C235 cells; 50 ng/ml) [%] | Control % sup (TM91C235 cells; 500 ng/ml) [%] | Control % sup (TM91C235 cells; 5000 ng/ml) [%] | FIC (fractional inhibitory concentration) index [1] | FIC index TM91C235 (TM91C235) | FIC index RCS (RCS) | FIC index Peruvian PC49 (Peruvian PC49) | Chloroquine % sup (TM91C235 cells; test compound 50 ng/ml combined with 10 ng/ml chloroquine) [%] |
| --- | --- | --- | --- | --- | --- | --- | --- | --- | --- | --- | --- | --- | --- |
| c1ccc2c(c1)Sc1ccccc1N2CCCCN1CCCC1 [compound 7e, 10-(4-Pyrrolidin-1-yl-butyl)phenothiazine] | 33 | 67 | 99 | 95 | 100 | 38 | 70 | 96 | 0.21 | 0.25 | 0.51 | 0.5 |  |
| CCN(CC)CCCCN1c2ccccc2Sc2ccccc21 [7b, 10-(4-Diethylaminobutyl)phenothiazine] | 17 | 30 | 99 | 100 | 100 | 26 | 38 | 100 | 0.23 | 0.29 | 0.41 | 0.41 | 31 |
| CCN(CC)CCCCN1c2ccccc2CCc2ccccc21 [7j, 5-(4-Diethylaminobutyl)iminodibenzyl] | 64 | 95 | 100 | 100 | 100 | 62 | 95 | 100 | 0.39 | 0.41 | 0.57 | 0.57 |  |
| CN(C)CCCCN1c2ccccc2CCc2ccccc21 [7i, 5-(4-Dimethylaminobutyl)iminodibenzyl] | 43 | 70 | 99 | 95 | 100 | 59 | 73 | 96 | 0.23 | 0.26 | 0.52 | 0.62 |  |
| CN1CCN(CCCCN2c3ccccc3Sc3ccccc32)CC1 [7h, 10-[4-(4-Methyl-piperazin-1-yl)-butyl]phenothiazine] |  |  |  |  |  |  |  |  | 0.4 | 0.48 | 0.49 | 0.98 |  |
| c1ccc2c(c1)Sc1ccccc1N2CCCCN1CCCCC1 [7f, 10-(4-Piperidin-1-yl-butyl)phenothiazine] |  |  |  |  |  |  |  |  | 0.49 | 0.52 | 0.68 | 0.83 |  |
| c1ccc2c(c1)CCc1ccccc1N2CCCCN1CCCC1 [compound 7m, 5-(4-Pyrrolidin-1-yl-butyl)iminodibenzyl] | 64 | 96 | 100 | 100 | 100 | 58 | 98 | 100 | 0.32 | 0.42 | 0.51 | 0.66 |  |
